# Measured values as given in US6905834B1, “Bioluminescent bioreporter integrated circuit detection methods” (UT-Battelle, LLC, priority 1997, dated 2005).
# Like-named read-outs stand apart in the source and are kept apart here.
# Key:
# [1] = system: P. putida TVA8; format: cell-based, Pseudomonas putida
# [2] = system: P. putida B2; experiment: Assays of growing cells of tod-lux reporter P. putida B2; format: cell-based, Pseudomonas putida; settings: for bioluminescent response: 90 minutes exposure
# Description: (§1) In the batch and reactor studies, bioluminescence was measured using a photomultiplier, which converts the light to an electric current. The photomultiplier in the resting cell assays and the reactor system was connected to a computer and bioluminescence as namps current was recorded.
# Assays of growing cells were conducted as described by Heitzer et al. (1992). An overnight culture from a frozen stock of P. putida B2 was prepared in a 250-ml Erlenmeyer flask containing 100 ml LB and 50 μg ml^−1 kanamycin. A subculture was prepared and cells were used in mid-log phase (OD546 of 0.45-0.48). A 2.5-ml aliquot was added to 2.5 ml mineral salts medium (MSM) containing 0-50 mg L^−1 toluene or 10-100 μl of JP4 jet fuel-saturated MSM. The concentration of toluene in water saturated with JP4 jet fuel is approximately 8 mg L^−1 (Smith et al., 1981). Bioluminescence was measured every 30 min.
# [3] = system: P. putida B2; experiment: Resting cell assays of P. putida B2, single and multiple toluene exposures; format: cell-based, Pseudomonas putida; settings: 10 mg/L toluene; for Bioluminescent response rate, Multiple Exposure Vial: single vial with multiple additions; for Bioluminescent response rate, Single Exposure Vials: new vial previously unexposed
# Description: as §1
# Cells for resting cell assays were grown on MSM supplemented with 2.7 g L^−1 succinate. A culture of P. putida B2 was harvested at on OD546 of approximately 0.8. The cells were centrifuged at 15000×g for 10 min, and resuspended in MSM to OD546 of 0.6 four milliliters of culture were added to each of six 26-ml vials with Mininert valves (Dynatech, Chantilly, Va.) with stir bars. One vial was used for multiple toluene exposures, while the remainder were used for single exposures. The vials were magnetically stirred in a light-tight sampling cell. Toluene-saturated MSM and MSM alone were added to yield an OD546 of 0.47, and 10 mg L^−1 toluene was injected six times over a 130-h period of the multiple-exposure vial. At the same time points, a single-exposure vial was injected with 10 mg L^−1 toluene. The light response was recorded every 3 min with a photomultiplier connected to a data acquisition computer.
# [4] = system: P. putida B2; experiment: Immobilized cell reactor (DVR) with alginate-encapsulated P. putida B2: bioluminescence and TCE co-metabolism; format: cell-based, Pseudomonas putida
# Description: as §1
# P. putida B2 was encapsulated in alginate beads for the immobilized cell reactor system. Cells were grown in 1 L LB to an OD546 of 1.2 and were centrifuged at 5500×g for 10 min, washed three times in 0.9% NaCl and suspended in 40 ml 0.9% NaCl. The cell suspension was added to 80 ml of an alginic acid solution (28 g L^−1 low viscosity alginate, 0.9% NaCl) (Webb, 1992). The cell-alginate suspension was placed in a 60-ml syringe, forced through a 25-gauge needle, and allowed to drop into a 0.5 M CaCl2 Solution. The alginate was cross-linked by the Ca^2+ ions, thus encapsulating the cells. The cells were subsequently placed in a fresh solution of 0.1 M CaCl2 and allowed to sit for 30 min prior to use.
# A differential volume reactor (DVR) was used to simulate a section of an ideal plug flow reactor. Influent to the reactor was dispersed through a porous metal frit to provide a flat velocity profile to the bed. The reactor measured 5.0 cm i.d.×5.0 cm long. A complete description of this reactor can be found in Webb et al. (1991). In this investigation, a system was designed incorporating the DVR as illustrated in FIG. 17. The system was equipped with three Millipore (Bedford, Mass.) stainless steel substrate containers rated to 690 kPa. The feed from the substrate vessels to the reactor inlet was controlled by two Filson (Middleton, Wis.) 301 HPLC pumps. A flow rate of 0.4 ml min^−1 was maintained. The substrate vessels were pressurized with oxygen to provide the system with an electron acceptor. All medium vessels contained trace mineral medium (Lackey et al., 1993) with the addition of 3 mg L^−1 pyruvic acid and a 0.1 M solution of Tris-base (pH 7.0). phosphate buffers were not used since phosphate ions complex with Ca^2+ ions and disrupt with alginate crosslinking. In addition to this medium, two of the vessels contained either TCE or toluene. The inlet concentration of toluene was altered by using square-wave perturbations with 20-h cycles (10 h with toluene, 10 h without toluene) using an HPLC pump controlled by a timer. During feed portions of the cycle, 10 mg L^−1 toluene was introduced into the inlet of the reactor. The inlet TCE concentration was constant at 20 mg L^−1.
# Analysis of TCE in the reactor effluent was performed online using a stripping column (12.5 cm length and 0.4 cm inner diameter) packed with 3-mm glass beads to provide adequate surface area for TCE separation. TCE was stripped with helium, the GC carrier gas. The stripping column outlet was attached to a gas chromatograph (GC, Hewlett Packard (Wilmington, Del.) (HP) 5890 Series II) with an electron capture detector by a heated sample line maintained at 75° C. Automatic injections (25 μl) were made by a computerized control process (HP Chem Station software). The GC was equipped with a cross-linked methyl silicone capillary column (length 30 n, i.d 0.2 mm, 0.33-μm film thickness) while the oven was operated isothermally at 60° C. Other operating parameters included an injection temperature of 150° C., detector temperature of 200° C. and a split ratio of 10:1. This system was equipped with a bypass line around the reactor in order to calibrate the stripping column.
# Toluene samples were removed at 0.5-ml aliquots from the effluent sampling port (FIG. 17) and injected into 1.5 ml sample vials. Headspace analysis was performed using a Shimadzu (Columbia, Md.) GC-9A gas chromatograph equipped with a 2.44-m, 3.2-mm diameter Poropak N packed column and a flame ionization detector. The isothermal temperature of the oven was 210° C., and both the detector and injector temperatures were 220° C.
# [5] = Adsorption isotherms on calcium alginate; format: physicochemical
# Description: Tracer concentrations were measured using a Waters ion-chromatography system with a series 510 HPLC pump, IC-PAK anion exchange column, and 431 conductance detector (Waters, Cam-bridge, MA) or monitored continuously using fluorescence.
# [6] = system: P. fluorescens HK44; format: cell-based, Pseudomonas fluorescens
# From the text: A previously developed PBR system with on-line instrumentation (Webb, 1992; Webb et al., 1991) was used to measure bacterial degradative and bioluminescent activity under conditions mimicking those of the subsurface. The reactor design is detailed in FIG. 21. The PBR was temperature controlled and fitted with metal frits welded to the inlet and outlet to retain and distribute feed to immobilized cultures. An additional inter-cavity insert allowed the installation of filters (e.g., […] inorganic and polymeric) between the packed bed and outlet frit that filtered the effluent for automatic injection into the on-line high-performance liquid chromatography (HPLC) and that produced a uniform resistance to flow that improved the overall distribution to the reactor (Webb, 1992). […] HPLC pumps supplied media to each reactor from pressurized feed reservoirs. All nutrients, including oxygen, entered the reactor dissolved in the liquid phase. Naphthalene and salicylate were detected with an on-line HPLC using a Vydac TP20154 column (Sep/A/Ra/Tions Group, Hesperia, Calif.) with a FL-4 dual-monochromator fluorescent detector (Perkin-Elmer, Norwalk, Conn.). Respective excitation and emission wavelengths for salicylate detection were 290 and 360 nm. The reactor was fitted with an on-line light detector for monitoring bioluminescent activity (Dunbar, 1992) consisting of a glued fiber bundle (Ensign Bickford Optics, Simsbury, Conn.) placed approximately 2.5 cm from the entrance of the reactor. An Oriel Inc. (Stratford, Conn.) 7070 photomultiplier detection system using a Model 77348 photomultiplier tube (radiant sensitivity of […] near 500 nm) were employed.
# Mineral salts media (pH 7.2) consisting of MgSO4 7H2O ([…]), NH4NO3 ([…]), trizma™ base ([…]), MgO (1.0×10^−3 g/l), CaCl2 (2.9×10^−4 g/l), FeCl3.6H2O (5.4×10^−4 g/l), ZnSO4.7H2O (1.4×10^−4 g/l), CuSO4 (2.5×10^−5 g/l), […] (6.2×10^−6 g/l), and Na2MoO4.H2O (4.9×10^−5 g/l) were supplied to the reactor with an appropriate carbon source for degradation and bioluminescence studies. Kinetic bacterial studies were phosphate limited and maintained aerobic by con-trolled pressurization of feeds and the reactor.
# The HK44 was prepared for immobilization by adding freshly thawed inoculum (frozen at −70° C. until use) to 100 mL of YEPG media which contained glucose (1.0 g/l), polypeptone (2.0 g/l), yeast extract (0.2 g/l), NH4NO3 (0.2 g/l), and tetracycline (14 mg/l). The culture was shaken for 15 hours at 25° C. and then centrifuged at 8000 rpm for 10 minutes. The pellet was then washed with 0.9% NaCl solution three times before immobilization. The concentration of HK44 was enumerated by measuring optical density at 546 nm. The HK44 was immobilized by suspending bacteria in 0.9% NaCl solution and mixing with a low-viscosity alginate (28 g/L) and NaCl (9 g/L) solution in a ratio of 1:2 by volume. Beads were formed by controlled dropwise addition to 0.1 M CaCl2 solution by a syringe needle installed in an air jet controlled by a precision regulator (Porter Instrument Co., Hatfield, Pa.) and a piece of 0.003-in. (i.d.) tubing. Beads diameters were measured using gentle wet sieving. Alginate beads were dissolved in 50 mM sodium hexametaphosphate. […]
# [7] = Model parameters for naphthalene (diffusion, equilibrium constant); format: physicochemical
# From the text: Biot numbers were on the order of 100. Effectiveness factor calculations using the best-fit first-order reaction rate constant indicate that the beads were limited by the reaction rate and not by internal mass transfer resistance. The good fit obtained using the analytical solution, wherein external and internal mass transfer was assumed negligible, also support the conclusion that mass transfer effects were minimal. The model predicts that the salicylate distribution reaches a steady state within an alginate bead (99% of final) in about 7 minutes. Even assuming that the diffusion coefficient was reduced by an order of magnitude in the alginate matrix, a steady state was reached within 15 min. […] Cell volume estimated at less than 1% probably had little effect on diffusion. The model also predicted that liquid mass transfer resistance would have little effect on reaching steady state. […] A positive 50% error in the measured adsorption coefficient would result in doubling the time required to reach steady state. […] Model parameters have been measured (liquid mass transfer coefficient, pellet void volume, and adsorption coefficients), reported, and estimated. Respective coefficients for naphthalene were […], 9.0×10^−8 cm^2 s^−1 and 8.4 cm^2 s mol^−1 for liquid diffusion, solid diffusion, and Langmuir equilibrium constants. Companion free cell studies are needed to further aid evaluation of free and immobilized kinetics and response.
# [8] = system: HK44 cells; settings: liquid assays; cited from earlier work
structure (smiles),measurement,setting,value
"Cc1ccccc1 [Toluene, toluene]",light response (in words),"[1]; approximately 50 mg/L (JP-4 approx. 2%), 2 h",significant light response
same,bioluminescence relative to background bioluminescence level,[1]; at 50 μg toluene/L,80 fold
same,Specific Bioluminescence,"[1]; exposure 2 hours, approximately 50 mg/L, normalized to final OD546, average ± SD of three replicates",291 ± 6 namp/OD
same,Specific Bioluminescence,"[1]; toluene 50 mg/L, 2 h exposure",290 namp/OD546
same,bioluminescent response (in words),[2]; 0 and 0.01 mg/l toluene,not a significant bioluminescent response
same,bioluminescent response,[2]; 0.1 mg/l toluene,2.4 namp
same,bioluminescent response,"[2]; 10, 20 and 50 mg/l toluene",approximately 90 namp
same,maximum bioluminescent response,[3]; same for single and multiple exposures,573±127 namp
same,"Bioluminescent response rate, Multiple Exposure Vial",[3]; time point 1,95 NAMP/HR
same,"Bioluminescent response rate, Single Exposure Vials",[3]; time point 2,137 NAMP/HR
same,"Bioluminescent response rate, Multiple Exposure Vial",[3]; time point 2,321 NAMP/HR
same,"Bioluminescent response rate, Single Exposure Vials",[3]; time point 3,67 NAMP/HR
same,"Bioluminescent response rate, Multiple Exposure Vial",[3]; time point 3,642 NAMP/HR
same,"Bioluminescent response rate, Single Exposure Vials",[3]; time point 4,60 NAMP/HR
same,"Bioluminescent response rate, Multiple Exposure Vial",[3]; time point 4,768 NAMP/HR
same,"Bioluminescent response rate, Single Exposure Vials",[3]; time point 5,60 NAMP/HR
same,"Bioluminescent response rate, Multiple Exposure Vial",[3]; time point 5,737 NAMP/HR
same,"Bioluminescent response rate, Single Exposure Vials",[3]; time point 6,49 NAMP/HR
same,"Bioluminescent response rate, Multiple Exposure Vial",[3]; time point 6,973 NAMP/HR
same,maximum light response,"[4]; 10 mg/L toluene square-wave feed, 20 mg/L TCE",43.4±6.8 namp
same,rate of light response decrease,[4]; after the toluene feed was stopped,3.4±0.8 namp/hr
same,rate of light emission increase,"[4]; during toluene feed cycle, 10 mg/L toluene, 20 mg/L TCE",16.3±1.2 namp/hr
same,effluent toluene concentration,[4]; inlet toluene 10 mg/L,5.8 ± 0.1 mg/L
same,toluene removal,[4]; inlet toluene 10 mg/L,50%
same,ratio toluene degraded to TCE degraded,[4]; steady state in DVR,1.7 μmol toluene degraded/μmol TCE degraded
c1ccc2ccccc2c1 [naphthalene],adsorption on calcium alginate (in words),[5],adsorbed linearly
same,"adsorption isotherm on calcium alginate, dimensionless ratio",[5]; linear isotherm,8.4
same,Bioluminescence ± σ,"[6]; experiment 5b, biomass […] 10^9 cells/mL, sodium salicylate 2.5 mg/L plus naphthalene 8.0, τ 15 min",4.79 ± 3.18 × 10^−1 nA
same,steady-state light response to naphthalene relative to response to salicylate,"[6]; identical conditions, alginate-immobilized HK44",approximately two orders of magnitudes greater
same,Langmuir equilibrium constant,[7],8.4 cm^2 s mol^−1
same,liquid diffusion coefficient,[7],9.0×10^6 cm^2 s^−1
same,solid diffusion coefficient,[7],9.0×10^−8 cm^2 s^−1
same,"linear luminescence response, lower concentration",[8],0.72 µg/L
same,"linear luminescence response, upper concentration",[8],3.25 mg/L
